These results are taken from PubChem BioAssay AID602217 (Sanford-Burnham Center for Chemical Genomics, 2012).

Active and inactive are the calls of the source.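 Rule for the calls: active = IC50 at or below a set limit; inactive = the rest.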

For the test, the system named is HL-1 cardiomyocytes, 2-deoxyglucose injury, ATPLite luminescence, 2 h. Kind of test: 2-DG-induced HL-1 ATP loss suppression – cell-based, ATPLite luminescence, dose response (AID 602217;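 note: cells kept in glucose-free DMEM during the 2-deoxyglucose injury; potency of protection where actives preserve ATP signal against 2-deoxyglucose stress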). (ATP-based viability assays read luminescence as a measure of living cells.)
By IC50 is commonly meant the midpoint of a concentration-inhibition curve. Regarding `COc1ccc2c(c1OC)C(=O)N1c3ccccc3C(=O)N(c3ccccc3)C21` (configuration not stated), the concentration for half-maximal inhibition (IC50) was 11 µM.

On to `CCOC(=O)c1c(C)[nH]c(C)c1C(=O)COc1ncnc2cc([N+](=O)[O-])ccc12`, for which the IC50 is > 79 µM (inactive).

For the compound `COc1ccccc1NC(=O)c1cc(-c2ccc(OC)c(OC)c2)nc2ccccc12`, the IC50 was 15.6 µM.

Turning to `CC(=O)c1ccc(-c2cnc3c(NC=O)cc(-c4cccc(C(=O)N(C)C)c4)cn23)cc1`, the IC50 is > 79 µM (inactive).

Turning to `CCOC(=O)c1c2c3c(cccc3n(C)c1=O)C(=O)c1ccccc1-2`, the IC50 was > 79 µM (inactive).

In the case of `CCn1c(O)c(/C=N/N=C/c2ccccc2)c2ccc(C3=NNC(=O)CC3)cc21`, the IC50 was 18.1 µM.

For the compound `COc1ccc(-c2csc(NC(=O)CCCc3nc4ccccc4c(=O)[nH]3)n2)cc1OC`, the IC50 was > 79 µM (inactive).

As for `COc1cccc(-c2cnc3c(NC=O)cc(-c4cccc(NC(C)=O)c4)cn23)c1`, the IC50 was 17.6 µM.

On to `COc1cccc(-c2cnc3c(NC(C)=O)cc(-c4cccc(NS(C)(=O)=O)c4)cn23)c1`, for which the IC50 is > 79 µM (inactive).

For the compound `COCCCN(Cc1ccco1)C(=O)Cn1ncc2c([nH]c3ccccc32)c1=O`, the IC50 was 41.4 µM (inactive).

`COc1ccccc1CN(C(=O)CNC(=O)c1ccco1)C(C(=O)NCC1CCCO1)c1ccccc1` (configuration not stated): the IC50 is 71.3 µM (inactive).

Turning to `COc1cc(-c2cnc3c(NC=O)cc(-c4cccnc4)cn23)cc(OC)c1OC`, the IC50 is 7.57 µM.

Take `COc1ccc(C(C(=O)NCc2ccccc2)N(Cc2ccco2)C(=O)c2snc(C(N)=O)c2N)cc1` (configuration not stated): the IC50 is 39.5 µM (inactive).

Take `CC(=O)Nc1cccc(-c2cc(NC=O)c3ncc(-c4ccc(C(C)=O)cc4)n3c2)c1`: the IC50 is 23.1 µM (inactive).

As to `COc1ccc(C(=O)Nc2cccc(/C(C)=N/NC(=O)c3ccc([N+](=O)[O-])c(C)c3)c2)cc1OC`, the IC50 was 5.18 µM.

Consider `NC(=O)c1cc2ccccc2o/c1=N\NC(=O)c1ccc(F)cc1`, for which the IC50 was > 79 µM (inactive).

For `NC(=O)c1nsc(C(=O)N(c2ccccc2F)C(C(=O)NCc2ccccc2)c2ccc(O)cc2)c1N` (configuration not stated), the IC50 was 11 µM.

For `COc1cc(/C=C/c2nnc3c4ccccc4ncn23)cc(OC)c1OC`, the IC50 was 31.9 µM (inactive).

In the case of `CC(C)c1ccccc1NC(=O)COC(=O)c1c2c(nc3ccccc13)CCN(Cc1ccccc1)C2`, the IC50 is > 79 µM (inactive).

With `NC(=O)COc1ccc2oc(=O)cc(-c3cc4ccccc4o3)c2c1`, the IC50 is > 79 µM (inactive).

Regarding `COc1ccc(-c2cc(-c3nnc(COC(=O)c4ccncc4)o3)c3ccccc3n2)cc1OC`, the IC50 is 24.7 µM (inactive).

For `O=C(COC(=O)c1ccccc1C(=O)OCC(=O)NCCc1c[nH]c2ccccc12)NCCc1c[nH]c2ccccc12`, the IC50 was > 79 µM (inactive).

`COc1cc(CN2C[C@@H](CO)O[C@@H](n3cnc4c(Nc5ccccc5)ncnc43)C2)cc(OC)c1OC`: the IC50 is > 79 µM (inactive).

In the case of `CC(C)(C)OC(=O)C[C@@H]1C/C=C\C[C@@H](CC(=O)N[C@@H](CO)Cc2ccccc2)C(=O)NC[C@@H](c2ccccc2)OC1=O`, the IC50 is > 79 µM (inactive).

Turning to `CCCn1nc(C(=O)Nc2nc(-c3ccccn3)cs2)c2ccccc2c1=O`, the IC50 is > 79 µM (inactive).

Consider `Cc1ccc(NC(=O)c2nc[nH]c2C(=O)NCCCNC(=O)c2[nH]cnc2C(=O)Nc2ccc(C)cc2)cc1`, for which the IC50 was > 79 µM (inactive).

In the case of `CC(C)(C)OC(=O)CNC(=O)c1[nH]cnc1C(=O)NCC(=O)OCc1ccccc1`, the IC50 was 21.7 µM (inactive).

For the compound `COc1ccc(CCNc2nc(-c3cccnc3)nc3ccccc23)cc1OC`, the IC50 was 55 µM (inactive).

As for `CC(=O)c1ccc(-c2cnc3c(NC=O)cc(-c4ccc(C(=O)NC5CC5)cc4)cn23)cc1`, the IC50 was 20 µM (inactive).

As for `CC(=O)Nc1cc(-c2ccc(C(=O)NC3CC3)cc2)cn2c(-c3cccc(C(C)=O)c3)cnc12`, the IC50 is 12.7 µM.

For `CNC(=O)c1ccc(-c2sc3nc(N4CCOCC4)c4c(c3c2N)CC(C)(C)OC4)o1`, the IC50 is 46.1 µM (inactive).

With `CC(=O)c1cccc(-c2cnc3c(NC=O)cc(-c4ccccc4F)cn23)c1`, the IC50 was > 79 µM (inactive).
